Source: patent US8703768B2, “Nitrogen containing heteroaryl compounds” (Hoffmann-La Roche Inc., priority 2010, dated 2014)

target: human PDE10A (Homo sapiens (Human), UniProt Q9Y233); assay: human PDE10A full length Scintillation Proximity Assay (SPA); format: biochemical; details: 50 nM cGMP and 50 nM [3H]-cGMP, 20 minutes at room temperature; read-out: PDE10A inhibition IC50
How it was run: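 Radiometric SPA read-out: after 20 min at room temperature with [^3H]-cGMP/cGMP substrate, zinc sulphate (18 mM) bead stop reagent added and counts read after 1 h. Non-specific signal defined without enzyme; full-length protein used.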

Sequence of human PDE10A (Q9Y233 other isoform, or with tags, fused parts or gaps): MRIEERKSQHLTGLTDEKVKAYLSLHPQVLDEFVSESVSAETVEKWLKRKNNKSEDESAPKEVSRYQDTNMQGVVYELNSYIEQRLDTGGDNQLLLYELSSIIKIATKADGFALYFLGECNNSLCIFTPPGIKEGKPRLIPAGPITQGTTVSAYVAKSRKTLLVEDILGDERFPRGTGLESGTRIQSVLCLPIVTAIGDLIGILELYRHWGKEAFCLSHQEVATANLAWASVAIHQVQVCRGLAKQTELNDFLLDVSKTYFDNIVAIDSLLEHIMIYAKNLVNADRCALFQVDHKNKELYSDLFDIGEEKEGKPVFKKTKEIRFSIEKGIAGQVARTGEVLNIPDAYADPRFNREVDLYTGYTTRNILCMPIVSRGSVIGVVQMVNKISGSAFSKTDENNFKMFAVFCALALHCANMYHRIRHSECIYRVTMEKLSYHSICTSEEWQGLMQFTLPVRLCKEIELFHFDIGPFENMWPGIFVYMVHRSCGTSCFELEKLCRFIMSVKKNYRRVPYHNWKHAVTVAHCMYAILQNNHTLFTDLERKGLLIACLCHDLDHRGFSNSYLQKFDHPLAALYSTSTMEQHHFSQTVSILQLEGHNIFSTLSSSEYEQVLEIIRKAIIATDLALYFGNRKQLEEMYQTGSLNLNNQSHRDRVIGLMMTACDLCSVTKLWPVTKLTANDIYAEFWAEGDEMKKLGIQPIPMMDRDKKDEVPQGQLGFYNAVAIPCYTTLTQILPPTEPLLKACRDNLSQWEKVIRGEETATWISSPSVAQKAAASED

IC50	SMILES
0.3 nM	CC(C)(CO)NC(=O)c1ncccc1NC(=O)c1nc(C2CC2)cnc1Nc1cncnc1 [Example 273, 6-Cyclopropyl-3-(pyrimidin-5-ylamino)-pyrazine-2-carboxylic acid [2-(2-hydroxy-1,1-dimethyl-ethylcarbamoyl)-pyridin-3-yl]-amide]
0.4 nM	CC1(NC(=O)c2ncccc2NC(=O)c2nc(C3CC3)cnc2Nc2cncnc2)COC1 [Example 275, 6-Cyclopropyl-3-(pyrimidin-5-ylamino)-pyrazine-2-carboxylic acid [2-(3-methyl-oxetan-3-ylcarbamoyl)-pyridin-3-yl]-amide]
2.7 nM	O=C(NC1COC1)c1ncccc1NC(=O)c1nc(C2CC2)cnc1Nc1cncnc1 [Example 277, 6-Cyclopropyl-3-(pyrimidin-5-ylamino)-pyrazine-2-carboxylic acid [2-(oxetan-3-ylcarbamoyl)-pyridin-3-yl]-amide]
1.9 nM	Cc1ccc(NC(=O)c2nc(C3CC3)cnc2Nc2cncnc2)c(C(=O)N2CCC2)n1 [Example 278, 6-Cyclopropyl-3-(pyrimidin-5-ylamino)-pyrazine-2-carboxylic acid [2-(azetidine-1-carbonyl)-6-methyl-pyridin-3-yl]-amide]
0.6 nM	Cc1ncc(NC(=O)c2nc(C3CC3)cnc2Nc2cncnc2)c(C(=O)NCC(C)(C)O)n1 [Example 281, 5-{[6-Cyclopropyl-3-(pyrimidin-5-ylamino)-pyrazine-2-carbonyl]-amino}-2-methyl-pyrimidine-4-carboxylic acid (2-hydroxy-2-methyl-propyl)-amide]
2 nM	CNC(=O)c1c(NC(=O)c2nc(C3CC3)cnc2Nc2cncnc2)cnn1CC1CCO1 (centres unmarked) [Example 282, 6-Cyclopropyl-3-(pyrimidin-5-ylamino)-pyrazine-2-carboxylic acid (5-methylcarbamoyl-1-oxetan-2-ylmethyl-1H-pyrazol-4-yl)-amide]
1.1 nM	CC(C)(O)CNC(=O)c1c(NC(=O)c2nc(C3CC3)cnc2Nc2cncnc2)cnn1CC1CCO1 (centres unmarked) [Example 283, 6-Cyclopropyl-3-(pyrimidin-5-ylamino)-pyrazine-2-carboxylic acid [5-(2-hydroxy-2-methyl-propylcarbamoyl)-1-oxetan-2-ylmethyl-1H-pyrazol-4-yl]-amide]
28 nM	CN(C)C(=O)c1cc(F)c(F)cc1NC(=O)c1nc(C2CC2)cnc1Nc1cncnc1 [Example 284, 6-Cyclopropyl-3-(pyrimidin-5-ylamino)-pyrazine-2-carboxylic acid (2-dimethylcarbamoyl-4,5-difluoro-phenyl)-amide]
43.2 nM	CNC(=O)c1c(NC(=O)c2nc(C3CC3)cnc2Nc2cncnc2)cnn1CC1CCOC1 (centres unmarked) [Example 286, 6-Cyclopropyl-3-(pyrimidin-5-ylamino)-pyrazine-2-carboxylic acid [5-methylcarbamoyl-1-(tetrahydro-furan-3-ylmethyl)-1H-pyrazol-4-yl]-amide]
15.1 nM	CC(C)(O)CNC(=O)c1c(NC(=O)c2nc(C3CC3)cnc2Nc2cncnc2)cnn1CC1CCOC1 (centres unmarked) [Example 287, 6-Cyclopropyl-3-(pyrimidin-5-ylamino)-pyrazine-2-carboxylic acid [5-(2-hydroxy-2-methyl-propylcarbamoyl)-1-(tetrahydro-furan-3-ylmethyl)-1H-pyrazol-4-yl]-amide]
0.8 nM	CNC(=O)c1cc(F)c(F)cc1NC(=O)c1nc(C2CC2)cnc1Nc1cncnc1 [Example 288, 6-Cyclopropyl-3-(pyrimidin-5-ylamino)-pyrazine-2-carboxylic acid (4,5-difluoro-2-methylcarbamoyl-phenyl)-amide]
24 nM	CNC(=O)c1c(NC(=O)c2nc(N3CCCC3)cnc2Nc2cncnc2)cnn1C [Example 289, 3-(Pyrimidin-5-ylamino)-6-pyrrolidin-1-yl-pyrazine-2-carboxylic acid (1-methyl-5-methylcarbamoyl-1H-pyrazol-4-yl)-amide]
2.8 nM	CNC(=O)c1cccc(F)c1NC(=O)c1nc(C2CC2)cnc1Nc1cncnc1 [Example 290, 6-Cyclopropyl-3-(pyrimidin-5-ylamino)-pyrazine-2-carboxylic acid (2-fluoro-6-methylcarbamoyl-phenyl)-amide]
31.2 nM	O=C(Nc1cc(F)c(F)cc1C(=O)N1CCC1)c1nc(C2CC2)cnc1Nc1cncnc1 [Example 291, 6-Cyclopropyl-3-(pyrimidin-5-ylamino)-pyrazine-2-carboxylic acid [2-(azetidine-1-carbonyl)-4,5-difluoro-phenyl]-amide]
0.7 nM	CNC(=O)c1ccc(F)cc1NC(=O)c1nc(C2CC2)cnc1Nc1cncnc1 [Example 292, 6-Cyclopropyl-3-(pyrimidin-5-ylamino)-pyrazine-2-carboxylic acid (5-fluoro-2-methylcarbamoyl-phenyl)-amide]
6 nM	CC(C)(O)CNC(=O)c1cccc(F)c1NC(=O)c1nc(C2CC2)cnc1Nc1cncnc1 [Example 293, 6-Cyclopropyl-3-(pyrimidin-5-ylamino)-pyrazine-2-carboxylic acid [2-fluoro-6-(2-hydroxy-2-methyl-propylcarbamoyl)-phenyl]-amide]

IC50	SMILES
19.3 nM	CN(C)C(=O)c1ccc(F)cc1NC(=O)c1nc(C2CC2)cnc1Nc1cncnc1 [Example 294, 6-Cyclopropyl-3-(pyrimidin-5-ylamino)-pyrazine-2-carboxylic acid (2-dimethylcarbamoyl-5-fluoro-phenyl)-amide]
2.3 nM	CC(C)(O)CNC(=O)c1cc(C(F)(F)F)ccc1NC(=O)c1nc(C2CC2)cnc1Nc1cncnc1 [Example 295, 6-Cyclopropyl-3-(pyrimidin-5-ylamino)-pyrazine-2-carboxylic acid [2-(2-hydroxy-2-methyl-propylcarbamoyl)-4-trifluoromethyl-phenyl]-amide]
3.9 nM	CNC(=O)c1cc(C(F)(F)F)ccc1NC(=O)c1nc(C2CC2)cnc1Nc1cncnc1 [Example 296, 6-Cyclopropyl-3-(pyrimidin-5-ylamino)-pyrazine-2-carboxylic acid (2-methylcarbamoyl-4-trifluoromethyl-phenyl)-amide]
4.1 nM	CNC(=O)c1c(NC(=O)c2nc(N3CCOCC3)cnc2Nc2cncnc2)cnn1C [Example 297, 6-Morpholin-4-yl-3-(pyrimidin-5-ylamino)-pyrazine-2-carboxylic acid (1-methyl-5-methylcarbamoyl-1H-pyrazol-4-yl)-amide]
7.8 nM	CN(C)C(=O)c1cc(F)ccc1NC(=O)c1nc(C2CC2)cnc1Nc1cncnc1 [Example 298, 6-Cyclopropyl-3-(pyrimidin-5-ylamino)-pyrazine-2-carboxylic acid (2-dimethylcarbamoyl-4-fluoro-phenyl)-amide]
0.3 nM	CNC(=O)c1c(F)cc(F)cc1NC(=O)c1nc(C2CC2)cnc1Nc1cncnc1 [Example 299, 6-Cyclopropyl-3-(pyrimidin-5-ylamino)-pyrazine-2-carboxylic acid (3,5-difluoro-2-methylcarbamoyl-phenyl)-amide]
16.7 nM	CN(C)C(=O)c1c(F)cc(F)cc1NC(=O)c1nc(C2CC2)cnc1Nc1cncnc1 [Example 300, 6-Cyclopropyl-3-(pyrimidin-5-ylamino)-pyrazine-2-carboxylic acid (2-dimethylcarbamoyl-3,5-difluoro-phenyl)-amide]
0.4 nM	CC(C)(O)CNC(=O)c1ccc(F)cc1NC(=O)c1nc(C2CC2)cnc1Nc1cncnc1 [Example 301, 6-Cyclopropyl-3-(pyrimidin-5-ylamino)-pyrazine-2-carboxylic acid [5-fluoro-2-(2-hydroxy-2-methyl-propylcarbamoyl)-phenyl]-amide]
1 nM	O=C(Nc1cc(F)ccc1C(=O)N1CCC1)c1nc(C2CC2)cnc1Nc1cncnc1 [Example 302, 6-Cyclopropyl-3-(pyrimidin-5-ylamino)-pyrazine-2-carboxylic acid [2-(azetidine-1-carbonyl)-5-fluoro-phenyl]-amide]
368 nM	CN(C)C(=O)c1cccc(F)c1NC(=O)c1nc(C2CC2)cnc1Nc1cncnc1 [Example 303, 6-Cyclopropyl-3-(pyrimidin-5-ylamino)-pyrazine-2-carboxylic acid (2-dimethylcarbamoyl-6-fluoro-phenyl)-amide]
143 nM	CNC(=O)c1c(NC(=O)c2nc(N3CCC3)cnc2Nc2cncnc2)cnn1C [Example 304, 6-Azetidin-1-yl-3-(pyrimidin-5-ylamino)-pyrazine-2-carboxylic acid (1-methyl-5-methylcarbamoyl-1H-pyrazol-4-yl)-amide]
4.5 nM	O=C(Nc1ccc(F)cc1C(=O)N1CCC1)c1nc(C2CC2)cnc1Nc1cncnc1 [Example 305, 6-Cyclopropyl-3-(pyrimidin-5-ylamino)-pyrazine-2-carboxylic acid [2-(azetidine-1-carbonyl)-4-fluoro-phenyl]-amide]
1.4 nM	CC(C)(O)CNC(=O)c1cc(F)ccc1NC(=O)c1nc(C2CC2)cnc1Nc1cncnc1 [Example 306, 6-Cyclopropyl-3-(pyrimidin-5-ylamino)-pyrazine-2-carboxylic acid [4-fluoro-2-(2-hydroxy-2-methyl-propylcarbamoyl)-phenyl]-amide]
68.6 nM	CNC(=O)c1c(F)cccc1NC(=O)c1nc(C2CC2)cnc1Nc1cncnc1 [Example 307, 6-Cyclopropyl-3-(pyrimidin-5-ylamino)-pyrazine-2-carboxylic acid (3-fluoro-2-methylcarbamoyl-phenyl)-amide]
0.9 nM	CN(C)C(=O)c1c(F)cccc1NC(=O)c1nc(C2CC2)cnc1Nc1cncnc1 [Example 308, 6-Cyclopropyl-3-(pyrimidin-5-ylamino)-pyrazine-2-carboxylic acid (2-dimethylcarbamoyl-3-fluoro-phenyl)-amide]
1.1 nM	O=C(Nc1cccc(F)c1C(=O)N1CCC1)c1nc(C2CC2)cnc1Nc1cncnc1 [Example 309, 6-Cyclopropyl-3-(pyrimidin-5-ylamino)-pyrazine-2-carboxylic acid [2-(azetidine-1-carbonyl)-3-fluoro-phenyl]-amide]
